Test results reported in ChEMBL document CHEMBL1145349, “Discovery of 3-hydroxy-4-carboxyalkylamidino-5-arylamino-isothiazoles as potent MEK1 inhibitors” (Bioorg Med Chem Lett, 2006).

target: Dual specificity mitogen-activated protein kinase kinase 1 (Homo sapiens, UniProt Q02750); assay: Inhibition of MEK1
Sequence (Q02750 whole entry): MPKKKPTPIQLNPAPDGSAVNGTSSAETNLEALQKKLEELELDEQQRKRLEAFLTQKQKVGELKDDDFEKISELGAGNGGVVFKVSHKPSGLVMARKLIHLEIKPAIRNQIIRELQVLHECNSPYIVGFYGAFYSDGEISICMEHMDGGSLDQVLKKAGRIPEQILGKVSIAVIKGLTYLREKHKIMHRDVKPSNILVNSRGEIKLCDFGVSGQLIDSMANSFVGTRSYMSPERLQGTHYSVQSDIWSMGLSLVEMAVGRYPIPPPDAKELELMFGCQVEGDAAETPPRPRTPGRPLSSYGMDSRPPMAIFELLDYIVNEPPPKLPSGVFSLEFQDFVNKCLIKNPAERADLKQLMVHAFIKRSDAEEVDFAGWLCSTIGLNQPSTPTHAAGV

SMILES | IC50 [µM]
CCCCNc1snc(O)c1C#N | > 5
N#Cc1ccc(Nc2s[nH]c(=O)c2C#N)cc1 | > 5
N#Cc1c(O)nsc1Nc1ccccc1C(F)(F)F | > 5
CC(C)Nc1snc(O)c1C#N | > 5
Cc1ccc(Nc2snc(O)c2C#N)cc1 | > 5
COc1cccc(Nc2snc(O)c2C#N)c1 | > 5
N#Cc1c(NCC2CCCCC2)s[nH]c1=O | > 5
N#Cc1c(O)nsc1NCCCN1CCOCC1 | > 5
CC(Nc1snc(O)c1C#N)c1ccccc1 (configuration not stated) | > 5
N#Cc1c(O)nsc1NCCc1ccc(O)cc1 | > 5
COc1ccccc1Nc1snc(O)c1C#N | > 5
COCCCNc1snc(O)c1C#N | > 5
Cc1ccccc1Nc1snc(O)c1C#N | > 5
N#Cc1c(O)nsc1NCCc1cccs1 | > 5
COc1nsc(Nc2ccccc2)c1C#N | > 5
Cc1cccc(Nc2s[nH]c(=O)c2C#N)c1 | > 5
Cn1sc(Nc2ccccc2)c(C#N)c1=O | > 5
N#Cc1c(O)nsc1Nc1ccccc1[N+](=O)[O-] | > 5
COc1ccc(Nc2snc(O)c2C#N)cc1 | > 5
COC(=O)c1cccc(Nc2s[nH]c(=O)c2C#N)c1 | > 5

Second part, the molecule after the results:

IC50 [µM] | SMILES
> 5 | CC(C)c1ccc(Sc2snc(O)c2C#N)cc1
> 5 | N#Cc1c(O)nsc1N1CCCCC1
> 5 | N#Cc1c(O)nsc1Nc1cccc([N+](=O)[O-])c1
> 5 | N#Cc1c(O)nsc1NCCc1ccccc1
> 2 | Cc1ccc(Nc2snc(O)c2/C(N)=N/O)cc1
> 5 | N#Cc1c(O)nsc1Oc1ccc(Oc2ccccc2)cc1
> 5 | N#Cc1c(O)nsc1Nc1ccc([N+](=O)[O-])cc1
> 5 | N#Cc1c(O)nsc1Nc1cccnc1
> 2 | Cc1ccc(Nc2snc(O)c2C(=N)NN2CCCCC2)cc1
7 | N#Cc1c(O)nsc1Nc1ccccc1
0.41 | N#Cc1c(O)nsc1Nc1ccc(Cl)cc1
> 2 | COc1cc(Nc2snc(O)c2-c2nn[nH]n2)cc(OC)c1
